In ChEMBL document CHEMBL4818987, “Recent advances of podophyllotoxin/epipodophyllotoxin hybrids in anticancer activity, mode of action, and structure-activity relationship: An update (2010-2020)” (Eur J Med Chem, 2020):

How the values were obtained:
HeLa [1] = experiment: Antiproliferative activity against human HeLa cells by MTT assay; type: functional, cell-based
A549 [2] = experiment: Antiproliferative activity against human A549 cells incubated for 48 hrs by MTT assay; type: functional, cell-based; settings: A549, 48 h
HepG2 [3] = experiment: Antiproliferative activity against human HepG2 cells incubated for 48 hrs by MTT assay; type: functional, cell-based; settings: HepG2, 48 h
L02 = experiment: Cytotoxicity against human HL7702 cells incubated for 48 hrs by MTT assay; type: cell-based; settings: L02, 48 h
BGC-823 = experiment: Antiproliferative activity against human BGC-823 cells incubated for 48 hrs by MTT assay; type: functional, cell-based; settings: BGC-823, 48 h
K562 [4] = experiment: Cytotoxicity against human K562 cells incubated for 72 hrs by CCK8 assay; type: functional, cell-based; settings: K562, 72 h
K562/Adr [5] = experiment: Cytotoxicity against human K562/ADR cells incubated for 72 hrs by CCK8 assay; type: functional, cell-based
K562 [6] = experiment: Potency index, ratio of doxorubicin IC50 to compound IC50 for human K562 cells; type: functional
K562/Adr [7] = experiment: Potency index, ratio of doxorubicin IC50 to compound IC50 for human K562/ADR cells; type: functional
[8] = Resistance index, ratio of IC50 for human K562/ADR cells to IC50 for human K562 cells; type: functional
HeLa [9] = experiment: Antiproliferative activity against human HeLa cells incubated for 48 hrs by MTT assay; type: functional, cell-based
MCF7 [10] = experiment: Antiproliferative activity against human MCF7 cells incubated for 48 hrs by MTT assay; type: functional, cell-based; settings: MCF7, 48 h
Huh-7 = experiment: Antiproliferative activity against human Huh7 cells incubated for 48 hrs by MTT assay; type: functional, cell-based; settings: Huh-7, 48 h
K562 [11] = experiment: Potency index, ratio of etoposide IC50 to test compound IC50 for antiproliferative activity against human K562 cells; type: functional
K562 [12] = experiment: Antiproliferative activity against human K562 cells incubated for 72 hrs by CCK8 assay; type: functional, cell-based; settings: K562, 72 h
K562/Adr [13] = experiment: Antiproliferative activity against human K562/ADR cells incubated for 72 hrs by CCK8 assay; type: functional, cell-based
K562/Adr [14] = experiment: Potency index, ratio of etoposide IC50 to test compound IC50 for antiproliferative activity against human K562/ADM cells; type: functional
K562/VCR = experiment: Cytotoxicity against human K562/VCR cells incubated for 72 hrs by CCK8 assay; type: functional, cell-based
SK-OV-3 = experiment: Antiproliferative activity against human SK-OV-3 cells incubated for 72 hrs by MTT assay; type: functional, cell-based; settings: SK-OV-3, 72 h
HepG2 [15] = experiment: Antiproliferative activity against human HepG2 cells incubated for 72 hrs by MTT assay; type: functional, cell-based; settings: HepG2, 72 h
CT26 = experiment: Antiproliferative activity against […] cells incubated for 72 hrs by MTT assay; type: functional, cell-based; settings: Mus musculus, CT26, 72 h
HeLa [16] = experiment: Antiproliferative activity against human HeLa cells incubated for 72 hrs by MTT assay; type: functional, cell-based
MCF7 [17] = experiment: Antiproliferative activity against human MCF7 cells incubated for 72 hrs by MTT assay; type: functional, cell-based; settings: MCF7, 72 h
B16-F10 = experiment: Antiproliferative activity against mouse B16/F10 cells incubated for 72 hrs by MTT assay; type: functional, cell-based; settings: B16-F10, 72 h
A549 [18] = experiment: Antiproliferative activity against human A549 cells incubated for 72 hrs by MTT assay; type: functional, cell-based; settings: A549, 72 h
K562/A02 = experiment: Antiproliferative activity against human K562/A02 cells by MTT assay; type: functional, cell-based

With `COc1ccc2c(c1)cc(/C=N/[C@@H]1c3cc4c(cc3[C@@H](c3cc(OC)c(OC)c(OC)c3)[C@H]3C(=O)OC[C@@H]31)OCO4)n2Cc1ccccc1F` as the molecule, how does the IC50 (HeLa [1]) read?
Its IC50 is 650 nM.

For `COc1cc([C@@H]2c3cc4c(cc3[C@@H](Sc3nc(N)nc5nc[nH]c35)[C@H]3COC(=O)[C@H]23)OCO4)cc(OC)c1OC`, which IC50 (A549 [2]) is on record?
Its IC50 is 300 nM.

What about the IC50 (HepG2 [3]) of the same molecule?
Its IC50 is 300 nM.

What about the IC50 (L02) of the same molecule?
Its IC50 is 300 nM.

What about the IC50 (BGC-823) of the same molecule?
The IC50 was 300 nM.

For `C=CC(=O)O[C@@H]1c2cc3c(cc2[C@@H](c2cc(OC)c(OC)c(OC)c2)[C@H]2C(=O)OC[C@@H]21)OCO3`, which IC50 (K562 [4]) is on record?
Its IC50 is 11 nM.

What about the IC50 (K562/Adr [5]) of the same molecule?
Its IC50 is 11 nM.

And the “Ratio IC50” value (K562 [6])?
Its value is 2.2.

And the “Ratio IC50” value (K562/Adr [7])?
The value was 2.2.

And the “Ratio IC50” value [8]?
Its value is 1.1.

Which results are given for `COc1cc([C@@H]2c3cc4c(cc3[C@@H](Nc3ncccc3C)[C@H]3COC(=O)[C@H]23)OCO4)cc(OC)c1OC`?
IC50 (A549 [2]): 60 nM; IC50 (BGC-823): 60 nM; IC50 (HeLa [9]): 60 nM; IC50 (MCF7 [10]): 60 nM; IC50 (Huh-7): 60 nM

For `COc1cc([C@@H]2c3cc4c(cc3[C@H](OCC(=O)N3C(=O)C(=O)c5c(Br)cccc53)[C@H]3COC(=O)[C@H]23)OCO4)cc(OC)c1OC`, which “Ratio IC50” value (K562 [11]) is on record?
Its value is 8.8.

And the IC50 (K562 [12])?
Its IC50 is 19 nM.

And the IC50 (K562/Adr [13])?
The IC50 was 19 nM.

And the “Ratio IC50” value (K562/Adr [14])?
The value was 8.8.

What does the source list for `COc1cc([C@@H]2c3cc4c(cc3[C@H](OC(=O)c3ccc5cc[nH]c5c3)[C@H]3COC(=O)[C@H]23)OCO4)cc(OC)c1OC`?
IC50 (K562 [4]): 81 nM; IC50 (K562/VCR): 81 nM

For `COc1ccc(-c2coc3cc(OCC(=O)O[C@@H]4c5cc6c(cc5[C@@H](c5cc(OC)c(OC)c(OC)c5)[C@H]5C(=O)OC[C@@H]54)OCO6)ccc3c2=O)cc1`, which IC50 (SK-OV-3) is on record?
The IC50 was 213 nM.

What about the IC50 (HepG2 [15]) of the same molecule?
Its IC50 is 213 nM.

What about the IC50 (CT26) of the same molecule?
Its IC50 is 213 nM.

And the IC50 (HeLa [16])?
The IC50 was 213 nM.

What about the IC50 (MCF7 [17]) of the same molecule?
The IC50 was 213 nM.

And the IC50 (B16-F10)?
The IC50 was 213 nM.

And the IC50 (A549 [18])?
The IC50 was 213 nM.

Which IC50 (K562 [4]) does the source give for `COc1cc([C@@H]2c3cc4c(cc3[C@H](OC(=O)c3ccc5[nH]ccc5c3)[C@H]3COC(=O)[C@H]23)OCO4)cc(OC)c1OC` here?
The IC50 was 81 nM.

And the IC50 (K562/VCR)?
The IC50 was 81 nM.

Which IC50 (K562/A02) does the source give for `COc1ccc2[nH]c(CN[C@@H]3c4cc5c(cc4[C@@H](c4cc(OC)c(OC)c(OC)c4)[C@H]4C(=O)OC[C@@H]43)OCO5)cc2c1` here?
Its IC50 is 100 nM.

What about the IC50 (HeLa [1]) of the same molecule?
The IC50 was 100 nM.

Which IC50 (K562/A02) does the source give for `COc1cc([C@@H]2c3cc4c(cc3[C@@H](NCc3cc5cc(F)ccc5[nH]3)[C@H]3COC(=O)[C@H]23)OCO4)cc(OC)c1OC` here?
The IC50 was 100 nM.

And the IC50 (HeLa [1])?
The IC50 was 100 nM.

What does the source list for `COc1cc([C@@H]2c3cc4c(cc3[C@@H](OC(=O)/C=C/c3ccccc3)[C@H]3COC(=O)[C@H]23)OCO4)cc(OC)c1OC`?
IC50 (K562 [4]): 11 nM; IC50 (K562/Adr [5]): 11 nM; Ratio IC50 (K562 [6]): 2.2; Ratio IC50 (K562/Adr [7]): 2.2; Ratio IC50 [8]: 1.1

Which IC50 (SK-OV-3) does the source give for `COc1ccc(-c2coc3cc(OCCCC(=O)O[C@@H]4c5cc6c(cc5[C@@H](c5cc(OC)c(OC)c(OC)c5)[C@H]5C(=O)OC[C@@H]54)OCO6)ccc3c2=O)cc1` here?
The IC50 was 213 nM.

And the IC50 (HepG2 [15])?
The IC50 was 213 nM.

What about the IC50 (CT26) of the same molecule?
Its IC50 is 213 nM.

And the IC50 (HeLa [16])?
Its IC50 is 213 nM.

And the IC50 (MCF7 [17])?
Its IC50 is 213 nM.

What about the IC50 (B16-F10) of the same molecule?
The IC50 was 213 nM.

What about the IC50 (A549 [18]) of the same molecule?
Its IC50 is 213 nM.

For `COc1cc([C@@H]2c3cc4c(cc3[C@H](OC(=O)Cc3c[nH]c5ccccc35)[C@H]3COC(=O)[C@H]23)OCO4)cc(OC)c1OC`, which IC50 (K562 [4]) is on record?
Its IC50 is 43 nM.

What about the IC50 (K562/VCR) of the same molecule?
The IC50 was 202 nM.

Which IC50 (SK-OV-3) does the source give for `COc1ccc(-c2coc3cc(OCCCCC(=O)O[C@@H]4c5cc6c(cc5[C@@H](c5cc(OC)c(OC)c(OC)c5)[C@H]5C(=O)OC[C@@H]54)OCO6)ccc3c2=O)cc1` here?
Its IC50 is 213 nM.

What about the IC50 (HepG2 [15]) of the same molecule?
The IC50 was 213 nM.

What about the IC50 (CT26) of the same molecule?
The IC50 was 213 nM.

And the IC50 (HeLa [16])?
The IC50 was 213 nM.

What about the IC50 (MCF7 [17]) of the same molecule?
The IC50 was 213 nM.

What about the IC50 (B16-F10) of the same molecule?
Its IC50 is 213 nM.

What about the IC50 (A549 [18]) of the same molecule?
The IC50 was 213 nM.
